Data as given in ChEMBL document CHEMBL3124776, “Discovery of novel urea derivatives as dual-target hypoglycemic agents that activate glucokinase and PPARγ” (Eur J Med Chem, 2014).
One block for each molecule: values may come before it. Calls of active or inactive are those of the source. No cut-off for these calls is given here.

Assays:
[1] = biological target: T1, Peroxisome proliferator-activated receptor gamma (Homo sapiens) (UniProt P37231); assay: Activation of PPAR-gamma (unknown origin) transfected in human U2OS cells assessed as increase in transcriptional activity at 10^-6 M after 24 hrs by luciferase reporter gene assay; assay type: cell-based
T1 sequence (whole entry): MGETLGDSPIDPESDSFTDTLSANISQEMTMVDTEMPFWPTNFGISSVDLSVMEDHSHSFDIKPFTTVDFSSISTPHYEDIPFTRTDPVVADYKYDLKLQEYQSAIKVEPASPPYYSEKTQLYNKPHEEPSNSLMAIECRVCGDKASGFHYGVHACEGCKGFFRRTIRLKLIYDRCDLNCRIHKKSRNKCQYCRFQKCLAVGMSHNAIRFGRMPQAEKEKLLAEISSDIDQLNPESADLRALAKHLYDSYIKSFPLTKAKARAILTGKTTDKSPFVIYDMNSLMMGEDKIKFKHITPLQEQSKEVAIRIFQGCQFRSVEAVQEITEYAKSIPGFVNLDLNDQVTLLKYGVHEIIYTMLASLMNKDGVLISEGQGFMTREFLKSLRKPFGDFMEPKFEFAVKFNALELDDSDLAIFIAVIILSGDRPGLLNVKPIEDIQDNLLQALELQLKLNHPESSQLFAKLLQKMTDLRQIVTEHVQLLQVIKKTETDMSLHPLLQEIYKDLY

[2] = biological target: T1, Peroxisome proliferator-activated receptor gamma (Homo sapiens); assay: Activation of PPAR-gamma (unknown origin) transfected in human U2OS cells assessed as increase in transcriptional activity at 10^-6 M after 24 hrs by luciferase reporter gene assay relative to rosiglitazone; assay type: cell-based
Mus musculus [3] = assay: Hypoglycemic activity in ICR mouse assessed as decrease in blood glucose level at 50 mg/kg, po after 6 hrs by OGTT relative to control; assay type: functional; parameters: scale not given: the % may be the effect or the level left
Mus musculus [4] = assay: Hypoglycemic activity in ICR mouse assessed as decrease in blood glucose level at 50 mg/kg, po after 2 hrs by OGTT relative to control; assay type: functional; parameters: scale not given: the % may be the effect or the level left
Mus musculus [5] = assay: Hypoglycemic activity in ICR mouse assessed as decrease in blood glucose level at 50 mg/kg, po after 4 hrs by OGTT relative to control; assay type: functional; parameters: scale not given: the % may be the effect or the level left
[6] = Tmax in ICR mouse at 50 mg/kg, po; assay type: ADME, organism-based; parameters: dose 50 mg/kg, route oral; conditions: in vivo
[7] = Cmax in ICR mouse at 50 mg/kg, po; assay type: ADME, organism-based; parameters: dose 50 mg/kg, route oral; conditions: in vivo
Mus musculus [8] = assay: Hypoglycemic activity in ICR mouse assessed as reduction of blood glucose AUC (0 to 120 mins) at 50 mg/kg, po qd administered for 3 days followed by glucose challenge for 40 mins on day 3 post last dose by OGTT relative to control; assay type: functional; parameters: scale not given: the % may be the effect or the level left
[9] = MRT (0 to t) in ICR mouse at 50 mg/kg, po; assay type: ADME, organism-based; parameters: dose 50 mg/kg, route oral; conditions: in vivo
[10] = AUC (0 to t) in ICR mouse at 50 mg/kg, po; assay type: ADME, organism-based; parameters: dose 50 mg/kg, route oral; conditions: plasma
Homo sapiens = species: Homo sapiens; assay: Selectivity for PPAR-gamma (unknown origin) over PPAR-alpha (unknown origin)

- Activity [1]: Active
SMILES: CCCN(C(=O)Nc1nc2ccc(C)cc2s1)c1ccc(OC(C)(C)C(=O)O)cc1

- Activity [2]: > 38.8%
SMILES: CC(C)(Oc1ccc(N(CC2CCCCC2)C(=O)Nc2nc3ccccc3s2)cc1)C(=O)O

- Activity [2]: > 38.8%
SMILES: C=CCN(C(=O)Nc1nccs1)c1ccc(OC(C)(C)C(=O)OCC)cc1

SMILES: CC(C)Oc1cc(OCCc2ccsc2)cc(C(=O)Nc2ccc(C(=O)O)cn2)c1
- Activity (Mus musculus [3]): 24.4%
- Activity (Mus musculus [4]): 29.7%
- Activity (Mus musculus [5]): 41.8%

- Tmax [6]: 30 min
- Cmax [7]: 77.8 µg/mL
- Activity [2]: > 38.8%
- MRT last [9]: 1.13 h
- AUC(0-t) [10]: 98000 ng·h/mL
SMILES: CCCCCN(C(=O)Nc1nccs1)c1ccc(OC(C)(C)C(=O)O)cc1
- Activity (Mus musculus [8]): 34.6%
- Activity (Mus musculus [4]): Active
- Activity (Mus musculus [5]): Active

- Activity [2]: > 38.8%
SMILES: CCCCCN(C(=O)Nc1nccs1)c1ccc(OC(C)(C)C(=O)OCC)cc1
- Activity (Mus musculus [8]): 10%

- Activity [1]: Active
SMILES: CC(C)CCN(C(=O)Nc1nc2ccccc2s1)c1ccc(OC(C)(C)C(=O)O)cc1

- Activity [2]: > 38.8%
SMILES: CCCCCN(C(=O)Nc1nc2ccc(C)cc2s1)c1ccc(OC(C)(C)C(=O)O)cc1
- Activity (Mus musculus [3]): 20%
- Activity (Mus musculus [5]): 22.6%

- Activity [1]: Active
SMILES: CC(C)(Oc1ccc(N(Cc2cccc(F)c2)C(=O)Nc2nc3ccccc3s2)cc1)C(=O)O

- Activity [1]: Active
SMILES: CCOC(=O)C(C)(C)Oc1ccc(N(Cc2ccco2)C(=O)Nc2nccs2)cc1

- Activity [1]: Active
SMILES: CCOC(=O)C(C)(C)Oc1ccc(N(CC=C(C)C)C(=O)Nc2nccs2)cc1

- Selectivity ratio (Homo sapiens): 10
SMILES: CC(C)(Oc1ccc(CCN(CC2CCCCC2)C(=O)Nc2ccc(F)cc2F)cc1)C(=O)O
